In brackets after ≈: the same amount, converted by molar mass.
What was measured:
[1] = test system: DNA; details: 10 μM PQQ (3.3 mg/L), dependent on presence of NADH and Cu (II); cited from earlier work
[2] = test system: bacteria in non-pasteurized cow milk; test: OD600 of PQQ fortified non-pasteurized cow milk (FIG. 2); type: cell-based; details: PQQ 0, 0.1, 1, 10 mg/L, after 6 and 9 hour mixing at 37 degree C, then LB culture 24 hours
Method: In one embodiment of the present invention, the inhibition effect of purified PQQ to the growth of bacterial is utilized to preserve food products. […] The samples were prepared with purified PQQ concentration level of 0, 0.1, 1, and 10 mg/L. Next, the samples were shaken at 37 degree C. for 3, 6, and 9 hours, and then saved in a refrigerator under 4 degree C. On the next day, liquid culture media LB was added into the samples, followed by the samples cultured in shake flask for the next 24 hours and ready for OD600 test.
FIG. 2 presents the OD600 value as a function of purified PQQ concentration measured from the samples shake flask for 3, 6, and 9 hours.

[3] = Solubility of PQQ in water solution; type: physicochemical; details: 20 °C, aqueous buffer; 20-25 degree C., pH 7.0 water solution
[4] = test system: Ampicillin resistant (AmpR) E. coli; test: OD600 measurement of bacterial growth in LB media with PQQ, Ampicillin resistant E. coli; type: cell-based; details: for OD600: AmpR, LB media, 37 degree C
Method: (§1) In one experiment, Top 10 E. coli and Ampicillin resistant (AmpR) E. coli are selected as bacterial samples. These bacterial samples are cultured separately in LB media in a number of tubes with various purified PQQ concentrations. LB media is prepared as following: Ten gram Bacto-tryptone, 5 g yeast extract and 10 g NaCl are added to 800 ml distilled H2O. The pH of the solution is adjusted to 7.5 with NaOH, and the final volume is adjusted to 1 L with distilled H2O. The LB media is autoclaved and filtered to be sterilized. The PQQ concentration range is prepared between 0 to 100 mg/Liter of LB media in the number of the tubes. The bacterial samples are inoculated into the tubes to the amount of 1×10^5/tube, incubated in 37 degree C. on shaking bench for designated time according to the following experiment designs. It is known that Ampicillin has no effect to the growth of Ampicillin resistant E. coli but can inhibit other bacteria growth. Therefore, the data from the Ampicillin experiment are focused on AmpR E. coli growth. While in the case of Top10 E. coli, other types of bacteria may grow in the culture as well.
(§2) Table 1 and FIG. 1 show OD600 value of samples from Top10 E. coli and Ampicillin resistant E. coli cultured at 6, 8, and 9.5 hours. OD600 is a measurement of the optical density at 600 nm wavelength light of a liquid media. The optical density is related to the amount of particle scattering of light. In this case, a high optical density indicates a large number of bacteria in the cultural sample, and OD600 datas are used in this invention disclosure as indication of numbers of bacteria in the liquid media, which is a standard method to monitor microorganism growth. The OD600 of cultured microorganism in liquid media is measured by photometer, using blank media as blank reference. To convert OD600 to the number of microorganism such as E. coli in the culture media, the converting formula is 1 OD=3.8×10^8. OD600 is a well known technique of monitoring bacterial growth to those of skilled in the art and so is not discussed further here.

[5] = test system: Top10 E. coli; test: OD600 measurement of bacterial growth in LB media with PQQ, Top10 E. coli; type: cell-based; details: 37 degree C
Method: as §1, §2

[6] = Isoelectric point of PQQ; type: physicochemical

In the case of O=C(O)c1cc(C(=O)O)c2c(n1)C(=O)C(=O)c1cc(C(=O)O)[nH]c1-2 [PQQ, Pyrroloquinoline quinone], the DNA cleavage [1] is listed as “induce DNA cleavage at thymine and cytosine residue sites”, the “amount of bacteria (OD600, FIG. 2)” value [2] is listed as “the amount of bacteria decreases as the purified PQQ concentration increases” and the solubility [3] is listed as 1000 to 2000 µg/mL (≈ 3.03 to 6.06 mM). The “number of E. coli in AmpR sample (general trend, FIG. 1 and table 1)” value ([4]; PQQ 0 to 100 mg/Liter of LB media, 6, 8, 9.5 hours) was “decreases as the concentration of purified PQQ increases”, the OD600 ([4]; PQQ 0.1 mg/L, 6 Hours) was 0.143 and the OD600 ([4]; PQQ 0.1 mg/L, 8 Hours) was 0.331. For the same compound, the OD600 ([4]; PQQ 0.1 mg/L, 9.5 Hours) was 0.401, the OD600 ([4]; PQQ 1 mg/L, 6 Hours) was 0.145 and the OD600 ([4]; PQQ 1 mg/L, 8 Hours) was 0.335. The OD600 ([4]; PQQ 1 mg/L, 9.5 Hours) was 0.408, the OD600 ([4]; PQQ 25 mg/L, 6 Hours) was 0.087 and the OD600 ([4]; PQQ 25 mg/L, 8 Hours) was 0.268. The OD600 ([4]; PQQ 25 mg/L, 9.5 Hours) was 0.356, the OD600 ([4]; PQQ 50 mg/L, 6 Hours) was 0.052 and the OD600 ([4]; PQQ 50 mg/L, 8 Hours) was 0.169. The OD600 ([4]; PQQ 50 mg/L, 9.5 Hours) was 0.298, the OD600 ([4]; PQQ 75 mg/L, 6 Hours) was 0.04 and the OD600 ([4]; PQQ 75 mg/L, 8 Hours) was 0.122. For the same compound, the OD600 ([4]; PQQ 75 mg/L, 9.5 Hours) was 0.239, the OD600 ([4]; PQQ 100 mg/L, 6 Hours) was 0.03 and the OD600 ([4]; PQQ 100 mg/L, 8 Hours) was 0.088. The OD600 ([4]; PQQ 100 mg/L, 9.5 Hours) was 0.192, the OD600 ([5]; PQQ 0.1 mg/L, 6 Hours) was 0.303 and the OD600 ([5]; PQQ 0.1 mg/L, 8 Hours) was 0.416. For the same compound, the OD600 ([5]; PQQ 0.1 mg/L, 9.5 Hours) was 0.451, the OD600 ([5]; PQQ 1 mg/L, 6 Hours) was 0.293 and the OD600 ([5]; PQQ 1 mg/L, 8 Hours) was 0.445. The OD600 ([5]; PQQ 1 mg/L, 9.5 Hours) was 0.452, the OD600 ([5]; PQQ 25 mg/L, 6 Hours) was 0.251 and the OD600 ([5]; PQQ 25 mg/L, 8 Hours) was 0.433. It also gave an OD600 ([5]; PQQ 25 mg/L, 9.5 Hours) of 0.472, an OD600 ([5]; PQQ 50 mg/L, 6 Hours) of 0.208 and an OD600 ([5]; PQQ 50 mg/L, 8 Hours) of 0.413. For the same compound, the OD600 ([5]; PQQ 50 mg/L, 9.5 Hours) was 0.457, the OD600 ([5]; PQQ 75 mg/L, 6 Hours) was 0.165 and the OD600 ([5]; PQQ 75 mg/L, 8 Hours) was 0.386. For the same compound, the OD600 ([5]; PQQ 75 mg/L, 9.5 Hours) was 0.446, the OD600 ([5]; PQQ 100 mg/L, 6 Hours) was 0.163 and the OD600 ([5]; PQQ 100 mg/L, 8 Hours) was 0.378. The OD600 ([5]; PQQ 100 mg/L, 9.5 Hours) was 0.431 and the isoelectric point [6] was 2.75 pH.

Source: US8088422B2, “Purified pyrroloquinoline quinone fortified food” (Shanghai Medical Life Science Research Center, Ltd., Co., priority 2008, dated 2012)
